Assay [1] concerns the target GST-CBP(1081-1197) bromodomain (Homo sapiens (Human), UniProt Q92793). As to the kind of experiment: CBP AlphaScreen Assay. To be noted: binding to biotin-H4(1-21) Ac-K5/8/12/16. The method, then: (§1) Specific binding of the CBP or BRD4 bromodomain to the acetylated peptide derived from the H4 histone substrate (tetra acetylated H4(1-21) Ac-K5/8/12/16) was measured in absence or presence of inhibitors. The GST tagged bromodomains of CBP (1081-1197) and BRD4 (49-170) were obtained from BPS Bioscience and binding to the biotinylated H4(1-21) Ac-K5/8/12/16 (AnaSpec. 64989) was assessed via AlphaScreen technology (Perkin Elmer).
(§2) 5 nM GST-CBP(1081-1197) and 20 nM biotin-H4(1-21) Ac-K5/8/12/16 (AnaSpec. 64989) were incubated with varying concentrations of CBP inhibitors in 15 μL of buffer containing 50 mM HEPES 7.5, […], 1 mM TCEP, and 0.003% Tween-20. After 30 minutes incubation at room temperature, 15 μL of detection buffer (BPS Bio. 33006) containing 7 μg/mL of Glutathione AlphaLisa acceptor beads (Perkin Elmer AL109) and 14 μg/mL of Streptavidin donor beads (Perkin Elmer 676002) was then added to the previous mixture. The reaction was incubated for an additional 2 hours at room temperature, and the AlphaScreen signal was quantified using the Envision Multilabel plate reader. As negative control, GST-CBP(1081-1197) was incubated with the non-acetylated biotin-H4(1-21) peptide(AnaSpec. 62555) and in presence of 0.25% of final DMSO concentration.
(§3) the binding of 2.5 nM of BRD4(49-170) to 10 nM biotin-H4(1-21) Ac-K5/8/12/16 (AnaSpec. 64989) was assessed following the same procedure described for the CBP assay. The standard dose response curves were fitted by Genedata Screener software using the variable-slope model: Signal=Signalnegative control+(SignalDMSO control−Signalnegative control)/(1+(IC50/Dose)^Hill slope).
(§4) Only Signal and Dose in the equation were treated as know values.
(In Alpha technology, singlet oxygen from a donor bead excites a nearby acceptor bead.)

A further assay deals with BRD4(49-170) bromodomain (Homo sapiens (Human), UniProt O60885). The assay is described as follows: BRD4 AlphaScreen Assay. To be noted: binding to biotin-H4(1-21) Ac-K5/8/12/16. How it is done: as §1, §2, §3, §4

Each structure is given as a SMILES string.

Chain of GST-CBP(1081-1197) bromodomain (Q92793 1081-1197): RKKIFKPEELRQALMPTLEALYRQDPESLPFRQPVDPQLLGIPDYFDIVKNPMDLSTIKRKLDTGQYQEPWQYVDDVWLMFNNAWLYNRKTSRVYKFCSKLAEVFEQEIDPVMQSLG

For the compound `CC1C(=O)N(C)Cc2c(-c3cccc4nc(-c5cnn(C)c5)c(C#N)cc34)nc(C3CCOCC3)n21` (single isomer, unassigned) [Example 8a, 5-(5,7-dimethyl-6-oxo-3-(tetrahydro-2H-pyran-4-yl)-5,6,7,8-tetrahydroimidazo[1,5-a]pyrazin-1-yl)-2-(1-methyl-1H-pyrazol-4-yl)quinoline-3-carbonitrile], the IC50 (commonly the concentration that inhibits the measured activity by half) is 513 nM in assay [1] and not below 25000 nM on BRD4(49-170) bromodomain.

In the case of `CC1C(=O)N(C)Cc2c(-c3cccc4nc(-c5cnn(C)c5)c(C#N)cc34)nc(C3CCOCC3)n21` (single isomer, unassigned) [Example 8b, 5-(5,7-dimethyl-6-oxo-3-(tetrahydro-2H-pyran-4-yl)-5,6,7,8-tetrahydroimidazo[1,5-a]pyrazin-1-yl)-2-(1-methyl-1H-pyrazol-4-yl)quinoline-3-carbonitrile], the IC50 in assay [1] was 2 nM; on BRD4(49-170) bromodomain it was 332 nM.

Regarding `CC1C(=O)N(C)Cc2c(-c3cccc4cc(C5CCOCC5)ncc34)nc(C3CCOCC3)n21` (single isomer, unassigned) [Example 15a, 5,7-dimethyl-3-(tetrahydro-2H-pyran-4-yl)-1-(3-(tetrahydro-2H-pyran-4-yl)isoquinolin-8-yl)-7,8-dihydroimidazo[1,5-a]pyrazin-6(5H)-one], the 50% inhibitory concentration (IC50) in assay [1] was determined as 170 nM; on BRD4(49-170) bromodomain it was 19700 nM.

With `CC1C(=O)N(C)Cc2c(-c3cccc4cc(C5CCOCC5)ncc34)nc(C3CCOCC3)n21` (single isomer, unassigned) [Example 15b, 5,7-dimethyl-3-(tetrahydro-2H-pyran-4-yl)-1-(3-(tetrahydro-2H-pyran-4-yl)isoquinolin-8-yl)-7,8-dihydroimidazo[1,5-a]pyrazin-6(5H)-one], the figures for the IC50 (in assay [1]; at BRD4(49-170) bromodomain) were 2 nM and 195 nM, respectively.

Take `CC1C(=O)N(C)Cc2c(-c3cccc4cc(N5CCOCC5)ncc34)nc(C3CCOCC3)n21` (single isomer, unassigned) [Example 16a, 5,7-Dimethyl-1-(3-morpholinoisoquinolin-8-yl)-3-(tetrahydro-2H-pyran-4-yl)-7,8-dihydroimidazo[1,5-a]pyrazin-6(5H)-one]: the IC50 in assay [1] is 1120 nM; at BRD4(49-170) bromodomain, not below 25000 nM.

With `CC1C(=O)N(C)Cc2c(-c3cccc4cc(N5CCOCC5)ncc34)nc(C3CCOCC3)n21` (single isomer, unassigned) [Example 16b, 5,7-Dimethyl-1-(3-morpholinoisoquinolin-8-yl)-3-(tetrahydro-2H-pyran-4-yl)-7,8-dihydroimidazo[1,5-a]pyrazin-6(5H)-one], the IC50 was 3 nM in assay [1] and 353 nM on BRD4(49-170) bromodomain.

In the case of `CC1C(=O)N(C)Cc2c(-c3cccc4nc(-c5cnn(C)c5)c(C(F)(F)F)cc34)nc(C3CCOCC3)n21` (single isomer, unassigned) [Example 26a, 5,7-Dimethyl-1-(2-(1-methyl-1H-pyrazol-4-yl)-3-(trifluoromethyl)quinolin-5-yl)-3-(tetrahydro-2H-pyran-4-yl)-7,8-dihydroimidazo[1,5-a]pyrazin-6(5H)-one], the figures for the IC50 (in assay [1]; on BRD4(49-170) bromodomain) were 2 nM and 193 nM, respectively.

On to `CC1C(=O)N(C)Cc2c(-c3cccc4nc(-c5cnn(C)c5)c(C(F)(F)F)cc34)nc(C3CCOCC3)n21` (single isomer, unassigned) [Example 26b, 5,7-Dimethyl-1-(2-(1-methyl-1H-pyrazol-4-yl)-3-(trifluoromethyl)quinolin-5-yl)-3-(tetrahydro-2H-pyran-4-yl)-7,8-dihydroimidazo[1,5-a]pyrazin-6(5H)-one], for which the IC50 turned out to be 271 nM in assay [1] and 11700 nM at BRD4(49-170) bromodomain.

For the compound `CC1C(=O)N(C)Cc2c(-c3cccc4nc(-c5cnn(C)c5)c(C(F)F)cc34)nc(C3CCS(=O)(=O)CC3)n21` (single isomer, unassigned) [Example 29a, 1-(3-(Difluoromethyl)-2-(1-methyl-1H-pyrazol-4-yl)quinolin-5-yl)-3-(1,1-dioxidotetrahydro-2H-thiopyran-4-yl)-5,7-dimethyl-7,8-dihydroimidazo[1,5-a]pyrazin-6(5H)-one], the figures for the IC50 (in assay [1]; at BRD4(49-170) bromodomain) were 6500 nM and not below 25000 nM, respectively.

For the compound `CC1C(=O)N(C)Cc2c(-c3cccc4nc(-c5cnn(C)c5)c(C(F)F)cc34)nc(C3CCS(=O)(=O)CC3)n21` (single isomer, unassigned) [Example 29b, 1-(3-(Difluoromethyl)-2-(1-methyl-1H-pyrazol-4-yl)quinolin-5-yl)-3-(1,1-dioxidotetrahydro-2H-thiopyran-4-yl)-5,7-dimethyl-7,8-dihydroimidazo[1,5-a]pyrazin-6(5H)-one], the figures for the IC50 (in assay [1]; at BRD4(49-170) bromodomain) were 32 nM and 592 nM, respectively.

As for `Cc1cn(-c2cc3cccc(-c4nc(C5CCOCC5)n5c4CN(C)C(=O)C5C)c3cn2)cn1` (single isomer, unassigned) [Example 30a, 5,7-dimethyl-1-(3-(4-methyl-1H-imidazol-1-yl)isoquinolin-8-yl)-3-(tetrahydro-2H-pyran-4-yl)-7,8-dihydroimidazo[1,5-a]pyrazin-6(5H)-one], the IC50 in assay [1] is 1 nM; on BRD4(49-170) bromodomain, 96 nM.

Regarding `Cc1cn(-c2cc3cccc(-c4nc(C5CCOCC5)n5c4CN(C)C(=O)C5C)c3cn2)cn1` (single isomer, unassigned) [Example 30b, 5,7-dimethyl-1-(3-(4-methyl-1H-imidazol-1-yl)isoquinolin-8-yl)-3-(tetrahydro-2H-pyran-4-yl)-7,8-dihydroimidazo[1,5-a]pyrazin-6(5H)-one], the IC50 in assay [1] turned out to be 373 nM; on BRD4(49-170) bromodomain, 18600 nM.

Turning to `Cc1ncc(-c2cc3cccc(-c4nc(C5CCOCC5)n5c4CN(C)C(=O)C5C)c3cn2)s1` (single isomer, unassigned) [Example 31a, 5,7-Dimethyl-1-(3-(2-methylthiazol-5-yl)isoquinolin-8-yl)-3-(tetrahydro-2H-pyran-4-yl)-7,8-dihydroimidazo[1,5-a]pyrazin-6(5H)-one], the results for the IC50 (in assay [1]; at BRD4(49-170) bromodomain) were 38 nM and 2690 nM, respectively.

Turning to `Cc1ncc(-c2cc3cccc(-c4nc(C5CCOCC5)n5c4CN(C)C(=O)C5C)c3cn2)s1` (single isomer, unassigned) [Example 31b, 5,7-Dimethyl-1-(3-(2-methylthiazol-5-yl)isoquinolin-8-yl)-3-(tetrahydro-2H-pyran-4-yl)-7,8-dihydroimidazo[1,5-a]pyrazin-6(5H)-one], the IC50 in assay [1] stood at 2 nM; on BRD4(49-170) bromodomain, 106 nM.

In the case of `CC1C(=O)N(C)Cc2c(-c3cccc4nc(-c5cnn(C)c5)c(C(F)F)cc34)nc(C3(C)CCOCC3)n21` (single isomer, unassigned) [Example 32a, 1-(3-(Difluoromethyl)-2-(1-methyl-1H-pyrazol-4-yl)quinolin-5-yl)-5,7-dimethyl-3-(4-methyltetrahydro-2H-pyran-4-yl)-7,8-dihydroimidazo[1,5-a]pyrazin-6(5H)-one], the IC50 in assay [1] was 490 nM; on BRD4(49-170) bromodomain it was not below 25000 nM.

For `CC1C(=O)N(C)Cc2c(-c3cccc4nc(-c5cnn(C)c5)c(C(F)F)cc34)nc(C3(C)CCOCC3)n21` (single isomer, unassigned) [Example 32b, 1-(3-(Difluoromethyl)-2-(1-methyl-1H-pyrazol-4-yl)quinolin-5-yl)-5,7-dimethyl-3-(4-methyltetrahydro-2H-pyran-4-yl)-7,8-dihydroimidazo[1,5-a]pyrazin-6(5H)-one], the IC50 in assay [1] came out at 2 nM; on BRD4(49-170) bromodomain, 351 nM.

Turning to `Cc1cn(-c2cc3ccc(F)c(-c4nc(C5CCOCC5)n5c4CN(C)C(=O)C5C)c3cn2)cn1` (single isomer, unassigned) [Example 33a, 1-(7-fluoro-3-(4-methyl-1H-imidazol-1-yl)isoquinolin-8-yl)-5,7-dimethyl-3-(tetrahydro-2H-pyran-4-yl)-7,8-dihydroimidazo[1,5-a]pyrazin-6(5H)-one], the values for the IC50 (in assay [1]; at BRD4(49-170) bromodomain) were 1610 nM and not below 25000 nM, respectively.

For `Cc1cn(-c2cc3ccc(F)c(-c4nc(C5CCOCC5)n5c4CN(C)C(=O)C5C)c3cn2)cn1` (single isomer, unassigned) [Example 33b, 1-(7-fluoro-3-(4-methyl-1H-imidazol-1-yl)isoquinolin-8-yl)-5,7-dimethyl-3-(tetrahydro-2H-pyran-4-yl)-7,8-dihydroimidazo[1,5-a]pyrazin-6(5H)-one], the results for the IC50 (in assay [1]; at BRD4(49-170) bromodomain) were 6 nM and 2120 nM, respectively.

Turning to `CC1C(=O)N(C)Cc2c(-c3c(F)ccc4cc(C5CCOCC5)ncc34)nc(C3CCOCC3)n21` (single isomer, unassigned) [Example 34a, 1-(7-Fluoro-3-(tetrahydro-2H-pyran-4-yl)isoquinolin-8-yl)-5,7-dimethyl-3-(tetrahydro-2H-pyran-4-yl)-7,8-dihydroimidazo[1,5-a]pyrazin-6(5H)-one], the concentration for half-maximal inhibition (IC50) was 2460 nM in assay [1] and not below 25000 nM on BRD4(49-170) bromodomain.
